Reference: patent US6403636B1, “Xanthone compounds, their preparation and use as medicament” (Zentaris AG, priority 1999, dated 2002)
*1 amine or outer side, *2 acyl side, *3 side chain or, on linkers, in order; H or OH if unused. Where a SMILES comes first, the peptide text is derived from it. Bridges are numbered along the chain shown (N, C = ends). Roman numbers before positions name the chains, in order. [ ]: non-standard residue; d: D form. Actinocin(9to1) = Cc1c2oc3c(C)ccc(C(=O)[*:1])c3nc-2c(C(=O)[*:2])c(N)c1=O; NMeV = CN[C@H](C(=O)O)C(C)C; Sar = CNCC(=O)O

How the values were obtained:
[1] = test system: KB: epidermal carcinoma of the oral cavity; assay: In vivo antitumor activity (hollow fiber assay), KB; conditions: for % Inhibition (cell line) KB: location s.c., i.p. doses (mg/kg): sootepenseone 4 × 10, Actinomycin D 4 × 0.1, Adriamycin 4 × 4, Bleomycin 4 × 8, Vinblastin 4 × 0.65
Description: (§1) The hollow-fiber test was carried out as described by Melinda G. Hollingshead et al. in Life Sciences, Vol. 57, No. 2, pp.131-141, 1995.

mice = assay: Toxicity (LD50, i.p., mice)
in vivo = conditions: mouse, ip
[2] = test system: MCF-7: human breast cancer; assay: In vivo antitumor activity (hollow fiber assay), MCF-7; conditions: location s.c.; i.p. doses (mg/kg): sootepenseone 4 × 10, Actinomycin D 4 × 0.1, Adriamycin 4 × 4, Bleomycin 4 × 8, Vinblastin 4 × 0.65; negative values = increase in cell growth
Description: as §1

[3] = test system: KB: epidermal carcinoma of the oral cavity; assay: XTT proliferation/cytotoxicity test, KB; assay type: cell-based; conditions: all tested tumor cell lines (KB, L1210, SK-OV-3, LNCAP)
Description: The XTT-assay was carried out as described by D. A. Scudiero et al., Cancer Res. 48 (Sep. 1, 1988), pp. 4827-4833. The results of this procedure are expressed as that dose which inhibits growth by 50% as compared to control growth after 45 hours following application of the substance. The dose value as obtained is referred to as ED 50 and activity is indicated for ED 50 levels of ≦30 μg/ml. […] The activities of sootepenseone (1) obtained in Example 1 are reported below in Table 2.

| Molecule | % Inhibition (cell line) KB [1] | LD50 (mg/kg i.p. mice) (mice) | LD50 (in vivo) | % Inhibition (cell line) MCF-7 [2] | anticancer activity against all tested tumor cell lines [3] | activity in the hollow-fiber test compared with the standard compounds ([1]; in words, KB and MCF-7) | less toxic than Adriamycin (mice; from LD50 i.p. mice) | less toxic than Bleomycin (mice; from LD50 i.p. mice) | times less toxic than Actinomycin D (mice; from LD50 i.p. mice) | times less toxic than Vinblastin (mice; from LD50 i.p. mice) |
| --- | --- | --- | --- | --- | --- | --- | --- | --- | --- | --- |
| Cc1c2oc3c(C)ccc(C(=O)N[C@@H]4C(=O)N[C@H](C(C)C)C(=O)N5CCC[C@H]5C(=O)N(C)CC(=O)N(C)[C@@H](C(C)C)C(=O)O[C@@H]4C)c3nc-2c(C(=O)N[C@@H]2C(=O)N[C@H](C(C)C)C(=O)N3CCC[C@H]3C(=O)N(C)CC(=O)N(C)[C@@H](C(C)C)C(=O)O[C@@H]2C)c(N)c1=O [Actinomycin D] (I: T[dV]P[Sar][NMeV] / II: T[dV]P[Sar][NMeV]; ester I:1-I:C, II:1-II:C; linker I:N-II:N via Actinocin(9to1)) | 40% | ca. 1 mg/kg |  |  |  |  |  |  |  |  |
| COc1cccc2c1C(=O)c1c(O)c3c(c(O)c1C2=O)C[C@@](O)(C(=O)CO)C[C@@H]3O[C@H]1C[C@H](N)[C@H](O)[C@H](C)O1 [Adriamycin] | 52% |  | ~40 mg/kg | 41% |  |  |  |  |  |  |
| CC(C)=CC[C@]12OC(C)(C)C3CC(C=C4C(=O)c5c(O)cc6c(c5OC431)C(C)(C)C(C)O6)C2=O (stereo partly drawn) [Sootepenseone (1; D-25637), sootepenseone] | 49% |  | > 100 mg/kg | 41% | significant anticancer activity | more active | 60% | 20% | at least 100 times | about 16 times |
| CC[C@]1(O)C[C@@H]2CN(CCc3c([nH]c4ccccc34)[C@@](C(=O)OC)(c3cc4c(cc3OC)N(C)[C@H]3[C@@](O)(C(=O)OC)[C@H](OC(C)=O)[C@]5(CC)C=CCN6CC[C@]43[C@@H]65)C2)C1 [Vinblastin] | 13% | ca. 6 mg/kg |  |  |  |  |  |  |  |  |
| Bleomycin | 53% | ca. 80 mg/kg |  |  |  |  |  |  |  |  |
